“And” between values parts separate entries of the source, which are not always exact repeats. Equal entries are not always repeated.
Tested on: non-metastatic osteosarcoma on distal right radius
Experiment: Oral inorganic mercury (II) treatment of a pet Rottweiler: blood data and clinical follow-up
Format: in vivo, dog
Parameters: MCV / MCH / Neutrophils, absolute / Bands / Lymphocytes, absolute / Monocytes, absolute / Eosinophils, absolute / Basophils, absolute: unit not given here
Text: An 8 year old, 108 lbs female Rottweiler, was diagnosed with non-metastatic osteosarcoma on distal right radius.
Earlier cisplatin chemotherapy was attempted, but was stopped due to unacceptable side effects one month before the inorganic mercury treatment. Prior to treatment, the dog had high alkaline phosphatase (ALP) level that had been rising as disease progressed (compare Day (−57) and Day 1 in Table 2). ALP is a known progression marker for osteosarcoma (Kirpensteijn et al., 2002, Vet Pathol 39:240-246 and Gaetano Bacci et al., 2002, Oncology Reports 9: 171-175). The dog completed the first 30-day treatment course followed by a 30-day non-treatment period and started the second treatment course for at least up to day 65. The formulation contained 1 mM mercury acetate in 20 mM sodium acetate buffer, pH 4.5, with 100 mM sucrose and 150 mM sodium chloride additives. It was introduced orally to the dog three times a day at 0.5 micromole Hg^2+/kg/day. […] This drop in ALP level (˜250 Units/month) was significant considering that, prior to starting the mercury (II) treatment, it had been raising at ˜50 U/month rate. As observed by the attending veterinarian, the dog's appetite was increased and the dog gained 5 lbs during that period. […] During this period the condition of the dog worsened and was accompanied by an increase in ALP level (compare Day 32 and Day 65 in Table 3). The dog was euthanized on Day 91.

SMILES: CC(=O)[O-].CC(=O)[O-].[Hg+2] [inorganic mercury (II), mercury acetate]
- condition of the dog (2nd treatment course, formulation administered with food in violation of the protocol): worsened
- ALT (SGPT) (Day 1): 61 U/L
- AST (SGOT) (Day 1): 28 U/L
- Albumin (Day 1): 3.7 g/dL
- Albumin/Globulin Ratio (Day 1): 1.1
- Alkaline Phosphatase (ALP) (Day 1): 794 U/L and 794 (H) U/L
- Amylase (Day 1): 862 U/L
- BUN/Creatinine Ratio (Day 1): 9
- Bands (Day 1): 0
- Basophils, absolute (Day 1): 0
- CPK (Day 1): 175 U/L
- Calcium (Day 1): 10.6 mg/dL
- Chloride (Day 1): 116 mE/L
- Cholesterol (Day 1): 240 mg/dL
- Creatinine (Day 1): 1.2 mg/dL
- Eosinophils, (%) (Day 1): 7%
- Eosinophils, absolute (Day 1): 770
- Globulin (Day 1): 3.4 g/dL
- Glucose (Day 1): 77 mg/dL
- Hematocrit (Day 1): 41.3%
- Hemoglobin (Day 1): 13.7 g/dL
- Lymphocytes, (%) (Day 1): 26%
- Lymphocytes, absolute (Day 1): 2860
- MCH (Day 1): 22.2
- MCHC (Day 1): 33.2
- MCV (Day 1): 67
- Monocytes, (%) (Day 1): 6%
- Monocytes, absolute (Day 1): 660
- Neutrophils, (%) (Day 1): 61%
- Neutrophils, absolute (Day 1): 6710
- Phosphorus (Day 1): 5.4 mg/dL
- Platelet count (Day 1): 475 (H) 10^3/microl
- Potassium (Day 1): 5.2 mE/L
- RBC (Day 1): 6.16 10^6/microl
- Sodium (Day 1): 152 mE/L
- Total Billirubin (Day 1): 0.1 mg/dL
- Total Protein (Day 1): 7.1 g/dL
- Urea Nitrogen (Day 1): 11 mg/dL
- WBC (Day 1): 11.0 10^3/microl
- drop in ALP level (Day 1 to Day 32, first treatment course): ~250 Units/month
- ALT (SGPT) (Day 32): 61 U/L
- AST (SGOT) (Day 32): 27 U/L
- Albumin (Day 32): 3.5 g/dL
- Albumin/Globulin Ratio (Day 32): 1.1
- Alkaline Phosphatase (ALP) (Day 32): 539 U/L and 539 (H) U/L
- Amylase (Day 32): 864 U/L
- BUN/Creatinine Ratio (Day 32): 12
- Bands (Day 32): 0
- CPK (Day 32): 198 U/L
- Calcium (Day 32): 10.5 mg/dL
- Chloride (Day 32): 118 mE/L
- Cholesterol (Day 32): 251 mg/dL
- Creatinine (Day 32): 1.3 mg/dL
- Eosinophils, (%) (Day 32): 5%
- Eosinophils, absolute (Day 32): 495
- Globulin (Day 32): 3.3 g/dL
- Glucose (Day 32): 102 mg/dL
- Hematocrit (Day 32): 39.1%
- Hemoglobin (Day 32): 13.9 g/dL
- Lymphocytes, (%) (Day 32): 35%
- Lymphocytes, absolute (Day 32): 3465
- MCH (Day 32): 24.6
- MCHC (Day 32): 35.5
- MCV (Day 32): 69
- Monocytes, (%) (Day 32): 5%
- Monocytes, absolute (Day 32): 495
- Neutrophils, (%) (Day 32): 55%
- Neutrophils, absolute (Day 32): 5445
- Phosphorus (Day 32): 5.5 mg/dL
- Platelet count (Day 32): 213 10^3/microl
- Potassium (Day 32): 5.2 mE/L
- RBC (Day 32): 5.64 10^6/microl
- Sodium (Day 32): 146 mE/L
- Total Billirubin (Day 32): 0.2 mg/dL
- Total Protein (Day 32): 6.8 g/dL
- Urea Nitrogen (Day 32): 16 mg/dL
- WBC (Day 32): 9.9 10^3/microl
- ALT (SGPT) (Day 65): 62 U/L
- AST (SGOT) (Day 65): 30 U/L
- Albumin (Day 65): 3.8 g/dL
- Albumin/Globulin Ratio (Day 65): 1.0
- Alkaline Phosphatase (ALP) (Day 65): 606 (H) U/L
- Amylase (Day 65): 1003 U/L
- BUN/Creatinine Ratio (Day 65): 13
- Bands (Day 65): 0
- Basophils, absolute (Day 65): 0
- CPK (Day 65): 171 U/L
- Calcium (Day 65): 10.9 mg/dL
- Chloride (Day 65): 113 mE/L
- Cholesterol (Day 65): 244 mg/dL
- Creatinine (Day 65): 1.2 mg/dL
- Eosinophils, (%) (Day 65): 8%
- Eosinophils, absolute (Day 65): 808
- Globulin (Day 65): 3.8 (H) g/dL
- Glucose (Day 65): 87 mg/dL
- Hematocrit (Day 65): 42.3%
- Hemoglobin (Day 65): 16.1 g/dL
- Lymphocytes, (%) (Day 65): 33%
- Lymphocytes, absolute (Day 65): 3333
- MCH (Day 65): 24.8
- MCHC (Day 65): 38.1 (H)
- MCV (Day 65): 65
- Monocytes, (%) (Day 65): 4%
- Monocytes, absolute (Day 65): 404
- Neutrophils, (%) (Day 65): 55%
- Neutrophils, absolute (Day 65): 5555
- Phosphorus (Day 65): 5.1 mg/dL
- Platelet count (Day 65): 368 10^3/microl
- Potassium (Day 65): 4.6 mE/L
- RBC (Day 65): 6.49 10^6/microl
- Sodium (Day 65): 150 mE/L
- Total Billirubin (Day 65): 0.1 mg/dL
- Total Protein (Day 65): 7.5 (H) g/dL
- Urea Nitrogen (Day 65): 15 mg/dL
- WBC (Day 65): 10.1 10^3/microl
- weight gained (first 30 days of treatment): 5 lbs
- appetite (first 30 days of treatment, observed by attending veterinarian): increased

— patent US20070154567A1, “Use of mercury to treat cancer” (priority 2006, published 2007)
